Earlier results in PMC5314429, “Enhancing PET Signal at Target Tissue in Vivo: Dendritic and Multimeric Tris(hydroxypyridinone) Conjugates for Molecular Imaging of αvβ3 Integrin Expression with Gallium-68” (Bioconjugate Chemistry, 2016).

Set-up: method as in PMID 16821777

Compound: CC(=O)NC(CCC(=O)NCc1c(O)c(=O)cc(C)n1C)(CCC(=O)NCc1c(O)c(=O)cc(C)n1C)CCC(=O)NCc1c(O)c(=O)cc(C)n1C [THP-Ac]
- log K1 for Fe^3+: 32.52
- pFe^3+ (pH 7.4, [Fe^3+] = 10^–6 M, [Ligand] = 10^–5 M): 28.47
